Laboratory results: PubChem BioAssay (NCI)
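Method: 48-hour compound exposure of cells in 96-well plates, five concentrations, linear interpolation of endpoints. TGI is the concentration that stops growth completely.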

Experiments:
Experiment in all cases: inhibition of tumour cell growth, NCI panel, 48 h
[1] = tested on: COLO 205 colon
[2] = tested on: HCC-2998 colon
[3] = tested on: HOP-62 NSCLC
[4] = tested on: IGROV1 ovarian
[5] = tested on: LOX IMVI melanoma
[6] = tested on: M14 melanoma
[7] = tested on: MDA-MB-231 breast
[8] = tested on: NCI-H226 lung
[9] = tested on: OVCAR-3 ovarian
[10] = tested on: SF-268 CNS
[11] = tested on: SK-MEL-5 melanoma
[12] = tested on: SN12C renal
[13] = tested on: SR leukemia
[14] = tested on: U251 CNS
[15] = tested on: UACC-257 melanoma
[16] = tested on: UACC-62 melanoma
[17] = tested on: CAKI-1 renal
[18] = tested on: KM12 colon
[19] = tested on: SNB-75 CNS
[20] = tested on: NCI/ADR-RES ovarian

Row | SMILES | TGI [1] | TGI [2] | TGI [3] | TGI [4] | TGI [5] | TGI [6] | TGI [7] | TGI [8] | TGI [9] | TGI [10] | TGI [11] | TGI [12] | TGI [13] | TGI [14] | TGI [15] | TGI [16] | TGI [17] | TGI [18] | TGI [19] | TGI [20]
1 | CC(=O)NCCCCN(CCCNC(C)=O)C(=O)CNS(=O)(=O)c1cccc2c(N(C)C)cccc12 | > 100 µM | > 100 µM | > 100 µM | > 100 µM | > 100 µM | > 100 µM | > 100 µM | > 100 µM | > 100 µM | > 100 µM | > 100 µM | > 100 µM | > 100 µM | > 100 µM | > 100 µM | > 100 µM |  |  |  | 
2 | COc1ccc(C2ON(c3ccccc3)CC=C2C)cc1 (configuration not stated) | > 100 µM | > 100 µM | > 100 µM | > 100 µM | > 100 µM | > 100 µM |  | > 100 µM | > 100 µM | > 100 µM |  | > 100 µM | > 100 µM | > 100 µM | > 100 µM | > 100 µM | > 100 µM | > 100 µM | > 100 µM | 
3 | COc1cc2c(c(O)c1OC)C(=O)[C@@H]1CCC(=O)N1C2c1ccccc1 (some centres not stated) | > 100 µM | > 100 µM | > 100 µM | > 100 µM | > 100 µM | > 100 µM |  | > 100 µM | > 100 µM | > 100 µM |  | > 100 µM | > 100 µM | > 100 µM | > 100 µM | > 100 µM | > 100 µM | > 100 µM | > 100 µM | > 100 µM
4 | CC1C2CC(CC2(C)O)C1(C)C (configuration not stated) | > 100 µM | > 100 µM | > 100 µM | > 100 µM |  | > 100 µM | > 100 µM | > 100 µM | > 100 µM | > 100 µM | > 100 µM | > 100 µM | > 100 µM | > 100 µM | > 100 µM | > 100 µM | > 100 µM | > 100 µM | > 100 µM | 
5 | CSc1nn(C)cc2ncnc1-2 | > 100 µM |  | > 100 µM | > 100 µM |  | > 100 µM | > 100 µM | > 100 µM | > 100 µM | > 100 µM | > 100 µM | > 100 µM | > 100 µM | > 100 µM | > 100 µM | > 100 µM | > 100 µM | > 100 µM | 64 µM | > 100 µM
6 | COc1cc2oc(-c3ccccc3)cc(=O)c2c(O)c1C | > 100 µM | > 100 µM | > 100 µM | > 100 µM | > 100 µM | > 100 µM |  | > 100 µM | > 100 µM | > 100 µM | > 100 µM | > 100 µM | > 100 µM | > 100 µM | > 100 µM | > 100 µM | > 100 µM | > 100 µM | > 100 µM | 
7 | O=[N+]([O-])c1cccc(-c2ncc3c(n2)-c2ccccc2C3)c1 | > 100 µM |  |  | > 100 µM |  | > 100 µM | > 100 µM | > 100 µM |  | > 100 µM | > 100 µM | > 100 µM | > 100 µM | > 100 µM | > 100 µM | > 100 µM | > 100 µM | > 100 µM | > 100 µM | > 100 µM
8 | CNC(=O)C1(C#N)C(c2ccccc2)C(C#N)(C(=O)NC)C1c1ccccc1 (configuration not stated) | > 100 µM | > 100 µM | > 100 µM | > 100 µM | > 100 µM | > 100 µM |  | > 100 µM | > 100 µM | > 100 µM | > 100 µM | > 100 µM | > 100 µM | > 100 µM |  |  | > 100 µM | > 100 µM | > 100 µM | > 100 µM
9 | COc1cccc(/C=C/C(=O)c2sc(C(N)=S)nc2C)c1O | > 100 µM | > 100 µM | > 100 µM | > 100 µM | 56.7 µM | > 100 µM |  | > 100 µM | > 100 µM | > 100 µM | > 100 µM | > 100 µM | 32.5 µM | > 100 µM | > 100 µM | > 100 µM | > 100 µM | > 100 µM | > 100 µM | 
10 | CC(c1ccc2c(c1)CCC1C2CC2OC23CC=CC(=O)[C@]13C)C1C[C@]2(C)O[C@]2(C)[C@H](O)O1 (some centres not stated) | > 100 µM | > 100 µM | 40.3 µM | > 100 µM | > 100 µM | 33.7 µM |  | 72 µM | > 100 µM | > 100 µM | 28.1 µM | > 100 µM | 53.6 µM | 55.3 µM | 56.8 µM | > 100 µM | 81.3 µM | > 100 µM | > 100 µM | 
11 | CCOC(=O)C1=C(C)NC2=C(C(=O)N(c3ccccc3)C2c2ccccc2)C1c1ccccc1 (configuration not stated) | 33.5 µM | 31.7 µM | 33.4 µM | 40.8 µM | 34.4 µM | 32.1 µM |  | 37.1 µM | 25.4 µM | 33.7 µM | 28.6 µM | 35.8 µM | 45.5 µM | 29.3 µM | 40.2 µM | 26.7 µM | 31.6 µM | 33.7 µM | 26.6 µM | 
